What was measured:
[1] = biological target: Cyclin-dependent kinase 2 (Homo sapiens, UniProt P24941)
[2] = biological target: Cyclin-dependent kinase 1 (Homo sapiens, UniProt P06493)
Sequence of Cyclin-dependent kinase 1 (P06493 whole entry): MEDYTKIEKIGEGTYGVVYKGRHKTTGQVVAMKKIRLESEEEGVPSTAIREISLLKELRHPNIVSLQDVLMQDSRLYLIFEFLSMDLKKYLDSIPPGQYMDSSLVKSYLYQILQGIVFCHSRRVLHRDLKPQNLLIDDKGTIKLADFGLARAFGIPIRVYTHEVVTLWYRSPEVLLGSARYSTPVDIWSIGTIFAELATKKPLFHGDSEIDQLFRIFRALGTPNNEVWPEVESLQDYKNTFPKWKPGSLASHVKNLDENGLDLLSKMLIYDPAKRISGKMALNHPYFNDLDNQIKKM
Description: Inhibition of Cyclin-dependent kinase 1 (CDK1) at 12.5 uM ATP

SMILES	IC50 [1]	IC50 [2]
Nc1cc(OCC2CCCCC2)nc(Nc2ccc(S(N)(=O)=O)cc2)n1	2900 nM	5300 nM
Nc1nc(Nc2ccc(S(N)(=O)=O)cc2)nc(OCC2CCCCC2)c1N=O	1.1 nM	5 nM
Nc1nc(Nc2cccc(Br)c2)nc(OCC2CCCCC2)c1N=O	500 nM	800 nM
CSc1ccc(Nc2nc(N)c(N=O)c(OCC3CCCCC3)n2)cc1	120 nM	220 nM
NC(=O)c1ccc(Nc2nc(N)cc(OCC3CCCCC3)n2)cc1	59000 nM	63000 nM
COc1ccc(Nc2nc(N)c(N=O)c(OCC3CCCCC3)n2)cc1	220 nM	230 nM

— ChEMBL document CHEMBL1136212, “Structure-based design of 2-arylamino-4-cyclohexylmethyl-5-nitroso-6-aminopyrimidine inhibitors of cyclin-dependent kinases 1 and 2” (Bioorg Med Chem Lett, 2003)
